Legend:
[1] = biological target: Dual specificity protein kinase CLK2 (Homo sapiens) (UniProt P49760); details: Compound concentration 1000.0 nM
[2] = biological target: Eukaryotic translation initiation factor 2-alpha kinase 1 (Homo sapiens) (UniProt Q9BQI3); details: Compound concentration 1000.0 nM
[3] = biological target: STE20-like serine/threonine-protein kinase (Homo sapiens) (UniProt Q9H2G2); details: Compound concentration 1000.0 nM
[4] = biological target: Hepatocyte growth factor receptor (Homo sapiens) (UniProt P08581); details: Compound concentration 1000.0 nM
[5] = biological target: Activated CDC42 kinase 1 (Homo sapiens) (UniProt Q07912); details: Compound concentration 1000.0 nM
[6] = biological target: Serine/threonine-protein kinase B-raf (Homo sapiens) (UniProt P15056); details: Compound concentration 1000.0 nM
[7] = biological target: MAP kinase-activated protein kinase 2 (Homo sapiens) (UniProt P49137); details: Compound concentration 1000.0 nM
Sequence of MAP kinase-activated protein kinase 2 (Homo sapiens) (P49137 whole entry, looked up): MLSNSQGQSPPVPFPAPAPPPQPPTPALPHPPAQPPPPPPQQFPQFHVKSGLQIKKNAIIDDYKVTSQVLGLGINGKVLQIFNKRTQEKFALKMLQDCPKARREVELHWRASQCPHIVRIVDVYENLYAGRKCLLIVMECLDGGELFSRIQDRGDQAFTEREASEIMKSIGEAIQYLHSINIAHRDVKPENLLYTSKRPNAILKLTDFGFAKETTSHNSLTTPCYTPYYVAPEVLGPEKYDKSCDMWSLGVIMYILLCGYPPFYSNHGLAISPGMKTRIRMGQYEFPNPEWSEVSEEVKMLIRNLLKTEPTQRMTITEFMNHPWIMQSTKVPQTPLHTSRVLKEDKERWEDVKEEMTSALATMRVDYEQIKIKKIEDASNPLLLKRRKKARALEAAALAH

[8] = biological target: Mitogen-activated protein kinase kinase kinase 9 (Homo sapiens) (UniProt P80192); details: Compound concentration 1000.0 nM
[9] = biological target: Dual specificity mitogen-activated protein kinase kinase 2 (Homo sapiens) (UniProt P36507); details: Compound concentration 1000.0 nM
[10] = biological target: Homeodomain-interacting protein kinase 4 (Homo sapiens) (UniProt Q8NE63); details: Compound concentration 1000.0 nM
[11] = biological target: Sodium-dependent noradrenaline transporter (Homo sapiens) (UniProt P23975); details: Compound concentration 10.0 uM
[12] = test system: Tyrosine-protein kinase ABL1 (Homo sapiens), P00519 [F317I]; details: Compound concentration 1000.0 nM
Sequence of Tyrosine-protein kinase ABL1 (Homo sapiens), P00519 [F317I] (P00519 whole entry F317I): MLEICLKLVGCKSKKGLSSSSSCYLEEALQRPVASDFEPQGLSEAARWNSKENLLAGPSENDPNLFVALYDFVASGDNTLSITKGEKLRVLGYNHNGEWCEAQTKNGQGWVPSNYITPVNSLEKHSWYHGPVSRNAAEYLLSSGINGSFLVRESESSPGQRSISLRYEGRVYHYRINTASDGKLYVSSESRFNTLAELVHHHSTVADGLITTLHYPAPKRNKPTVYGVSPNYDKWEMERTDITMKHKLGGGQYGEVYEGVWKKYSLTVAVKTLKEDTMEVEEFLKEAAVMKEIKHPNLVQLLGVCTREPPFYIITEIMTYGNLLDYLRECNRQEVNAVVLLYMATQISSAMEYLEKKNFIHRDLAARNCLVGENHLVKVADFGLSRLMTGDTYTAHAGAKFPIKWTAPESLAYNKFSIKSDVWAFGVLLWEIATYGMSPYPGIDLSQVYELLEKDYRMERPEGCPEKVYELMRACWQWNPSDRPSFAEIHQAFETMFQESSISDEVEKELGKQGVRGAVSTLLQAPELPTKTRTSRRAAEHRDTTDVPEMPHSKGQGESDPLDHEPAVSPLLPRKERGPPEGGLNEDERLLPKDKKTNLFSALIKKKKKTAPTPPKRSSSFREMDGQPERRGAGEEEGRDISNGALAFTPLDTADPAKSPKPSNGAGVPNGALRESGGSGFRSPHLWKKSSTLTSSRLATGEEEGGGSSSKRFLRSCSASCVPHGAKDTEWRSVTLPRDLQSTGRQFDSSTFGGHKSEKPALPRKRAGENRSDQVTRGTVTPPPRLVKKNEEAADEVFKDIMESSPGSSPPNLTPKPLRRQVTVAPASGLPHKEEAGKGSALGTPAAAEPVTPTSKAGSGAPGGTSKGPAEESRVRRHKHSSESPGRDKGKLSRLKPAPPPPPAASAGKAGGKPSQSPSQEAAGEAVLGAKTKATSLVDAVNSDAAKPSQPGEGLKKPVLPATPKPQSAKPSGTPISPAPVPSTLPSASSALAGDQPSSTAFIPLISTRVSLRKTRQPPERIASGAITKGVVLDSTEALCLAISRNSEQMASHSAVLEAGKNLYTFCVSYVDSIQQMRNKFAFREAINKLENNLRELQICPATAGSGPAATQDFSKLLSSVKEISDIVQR

[13] = biological target: cAMP-dependent protein kinase catalytic subunit PRKX (Homo sapiens) (UniProt P51817); details: Compound concentration 1000.0 nM
[14] = biological target: Mitogen-activated protein kinase kinase kinase 4 (Homo sapiens) (UniProt Q9Y6R4); details: Compound concentration 1000.0 nM
[15] = biological target: Mitogen-activated protein kinase 14 (Homo sapiens) (UniProt Q16539); details: Compound concentration 1000.0 nM
[16] = biological target: Receptor tyrosine-protein kinase erbB-4 (Homo sapiens) (UniProt Q15303); details: Compound concentration 1000.0 nM
[17] = biological target: 5'-AMP-activated protein kinase catalytic subunit alpha-2 (Homo sapiens) (UniProt P54646); details: Compound concentration 1000.0 nM
Sequence of 5'-AMP-activated protein kinase catalytic subunit alpha-2 (Homo sapiens) (P54646 whole entry, looked up): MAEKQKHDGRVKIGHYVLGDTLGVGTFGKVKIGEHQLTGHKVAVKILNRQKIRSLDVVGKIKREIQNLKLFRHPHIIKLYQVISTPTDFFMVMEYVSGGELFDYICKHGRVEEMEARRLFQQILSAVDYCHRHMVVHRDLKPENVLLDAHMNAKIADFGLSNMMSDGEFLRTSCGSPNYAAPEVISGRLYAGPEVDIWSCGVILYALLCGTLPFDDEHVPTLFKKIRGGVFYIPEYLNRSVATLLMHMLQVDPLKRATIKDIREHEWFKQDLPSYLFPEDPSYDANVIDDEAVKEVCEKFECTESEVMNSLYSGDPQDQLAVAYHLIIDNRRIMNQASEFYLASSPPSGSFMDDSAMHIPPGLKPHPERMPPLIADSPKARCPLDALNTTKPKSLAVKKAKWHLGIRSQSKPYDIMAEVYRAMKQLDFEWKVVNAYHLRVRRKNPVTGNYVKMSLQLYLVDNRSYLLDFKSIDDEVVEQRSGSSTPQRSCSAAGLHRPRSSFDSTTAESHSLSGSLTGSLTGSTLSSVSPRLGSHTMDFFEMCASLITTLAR

[18] = biological target: Serine/threonine-protein kinase pim-1 (Homo sapiens) (UniProt P11309); details: Compound concentration 1000.0 nM
[19] = biological target: LIM domain kinase 1 (Homo sapiens) (UniProt P53667); details: Compound concentration 1000.0 nM
[20] = biological target: Serine/threonine-protein kinase BRSK2 (Homo sapiens) (UniProt Q8IWQ3); details: Compound concentration 1000.0 nM
[21] = biological target: Serine/threonine-protein kinase SIK1 (Homo sapiens) (UniProt P57059); details: Compound concentration 1000.0 nM
Sequence of Serine/threonine-protein kinase SIK1 (Homo sapiens) (P57059 whole entry): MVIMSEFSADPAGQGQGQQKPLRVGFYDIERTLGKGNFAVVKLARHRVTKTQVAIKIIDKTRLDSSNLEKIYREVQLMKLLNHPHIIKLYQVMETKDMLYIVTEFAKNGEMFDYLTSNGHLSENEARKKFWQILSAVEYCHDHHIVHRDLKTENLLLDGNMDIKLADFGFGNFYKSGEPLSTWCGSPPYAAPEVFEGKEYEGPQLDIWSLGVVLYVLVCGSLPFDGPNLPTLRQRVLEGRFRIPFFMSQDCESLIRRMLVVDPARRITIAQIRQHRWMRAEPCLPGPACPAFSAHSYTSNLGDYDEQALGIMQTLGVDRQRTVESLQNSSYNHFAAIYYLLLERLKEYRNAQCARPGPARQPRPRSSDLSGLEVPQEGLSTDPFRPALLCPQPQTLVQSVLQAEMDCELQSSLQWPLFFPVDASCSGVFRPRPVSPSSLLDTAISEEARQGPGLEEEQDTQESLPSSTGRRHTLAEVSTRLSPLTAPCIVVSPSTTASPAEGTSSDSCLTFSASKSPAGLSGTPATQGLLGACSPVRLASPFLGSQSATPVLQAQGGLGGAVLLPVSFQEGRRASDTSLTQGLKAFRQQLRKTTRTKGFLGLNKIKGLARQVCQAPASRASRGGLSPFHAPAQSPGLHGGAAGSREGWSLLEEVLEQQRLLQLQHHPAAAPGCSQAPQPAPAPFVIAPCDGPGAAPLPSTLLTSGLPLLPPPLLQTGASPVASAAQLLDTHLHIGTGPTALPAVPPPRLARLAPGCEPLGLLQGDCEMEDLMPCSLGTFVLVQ

[22] = biological target: G protein-coupled receptor kinase 3 (Homo sapiens) (UniProt P35626); details: Compound concentration 1000.0 nM
Sequence of G protein-coupled receptor kinase 3 (Homo sapiens) (P35626 whole entry): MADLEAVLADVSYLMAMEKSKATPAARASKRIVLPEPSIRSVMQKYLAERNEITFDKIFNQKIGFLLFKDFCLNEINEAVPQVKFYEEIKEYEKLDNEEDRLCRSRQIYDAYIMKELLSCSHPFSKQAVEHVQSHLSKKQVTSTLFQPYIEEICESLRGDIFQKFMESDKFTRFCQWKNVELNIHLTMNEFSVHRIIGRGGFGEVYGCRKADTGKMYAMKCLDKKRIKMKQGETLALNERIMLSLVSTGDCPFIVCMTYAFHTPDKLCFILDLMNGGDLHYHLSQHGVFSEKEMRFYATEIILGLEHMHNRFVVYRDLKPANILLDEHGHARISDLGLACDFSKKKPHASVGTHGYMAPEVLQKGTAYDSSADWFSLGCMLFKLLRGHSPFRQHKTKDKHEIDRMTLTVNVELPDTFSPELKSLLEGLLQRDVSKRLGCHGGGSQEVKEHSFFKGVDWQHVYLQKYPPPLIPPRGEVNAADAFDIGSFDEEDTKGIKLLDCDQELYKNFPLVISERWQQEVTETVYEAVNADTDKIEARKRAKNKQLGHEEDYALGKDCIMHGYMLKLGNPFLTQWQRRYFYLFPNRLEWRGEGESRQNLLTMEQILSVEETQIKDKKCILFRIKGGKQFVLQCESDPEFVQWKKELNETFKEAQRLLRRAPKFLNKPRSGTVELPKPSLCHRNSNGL

[23] = biological target: Protein-tyrosine kinase 6 (Homo sapiens) (UniProt Q13882); details: Compound concentration 1000.0 nM
[24] = biological target: Serine/threonine-protein kinase 17B (Homo sapiens) (UniProt O94768); details: Compound concentration 1000.0 nM
[25] = biological target: Serine/threonine-protein kinase MRCK beta (Homo sapiens) (UniProt Q9Y5S2); details: Compound concentration 1000.0 nM
[26] = biological target: Mitogen-activated protein kinase kinase kinase kinase 4 (Homo sapiens) (UniProt O95819); details: Compound concentration 1000.0 nM
[27] = biological target: MAP kinase-interacting serine/threonine-protein kinase 1 (Homo sapiens) (UniProt Q9BUB5); details: Compound concentration 1000.0 nM
[28] = biological target: Phosphorylase b kinase regulatory subunit alpha, liver isoform (Homo sapiens) (UniProt P46019); details: Compound concentration 1000.0 nM
[29] = biological target: Mitogen-activated protein kinase kinase kinase 2 (Homo sapiens) (UniProt Q9Y2U5); details: Compound concentration 1000.0 nM
[30] = biological target: Dual specificity tyrosine-phosphorylation-regulated kinase 1B (Homo sapiens) (UniProt Q9Y463); details: Compound concentration 1000.0 nM
[31] = biological target: Ephrin type-B receptor 1 (Homo sapiens) (UniProt P54762); details: Compound concentration 1000.0 nM
[32] = biological target: Serine/threonine-protein kinase 25 (Homo sapiens) (UniProt O00506); details: Compound concentration 1000.0 nM
[33] = biological target: Serine/threonine-protein kinase MRCK gamma (Homo sapiens) (UniProt Q6DT37); details: Compound concentration 1000.0 nM
[34] = biological target: Mitogen-activated protein kinase 8 (Homo sapiens) (UniProt P45983); details: Compound concentration 1000.0 nM
[35] = biological target: Serine/threonine-protein kinase RIO3 (Homo sapiens) (UniProt O14730); details: Compound concentration 1000.0 nM
Sequence of Serine/threonine-protein kinase RIO3 (Homo sapiens) (O14730 whole entry): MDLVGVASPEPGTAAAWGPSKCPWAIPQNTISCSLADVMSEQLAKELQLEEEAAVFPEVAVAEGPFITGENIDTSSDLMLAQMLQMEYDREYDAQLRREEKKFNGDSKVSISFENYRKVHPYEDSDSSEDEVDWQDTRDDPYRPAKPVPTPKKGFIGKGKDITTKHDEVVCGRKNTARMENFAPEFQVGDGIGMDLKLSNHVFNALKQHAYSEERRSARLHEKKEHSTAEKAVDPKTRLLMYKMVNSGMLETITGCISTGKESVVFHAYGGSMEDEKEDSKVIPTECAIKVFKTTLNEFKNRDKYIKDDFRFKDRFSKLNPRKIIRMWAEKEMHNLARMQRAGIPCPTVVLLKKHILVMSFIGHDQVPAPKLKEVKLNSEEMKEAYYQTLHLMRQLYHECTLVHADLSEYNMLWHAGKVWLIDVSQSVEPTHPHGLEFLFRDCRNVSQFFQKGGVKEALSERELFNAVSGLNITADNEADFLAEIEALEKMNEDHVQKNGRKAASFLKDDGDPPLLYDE

[36] = biological target: Non-receptor tyrosine-protein kinase TYK2 (Homo sapiens) (UniProt P29597); details: Compound concentration 1000.0 nM
[37] = biological target: Mitogen-activated protein kinase 13 (Homo sapiens) (UniProt O15264); details: Compound concentration 1000.0 nM
[38] = biological target: Serine/threonine-protein kinase Nek5 (Homo sapiens) (UniProt Q6P3R8); details: Compound concentration 1000.0 nM
[39] = biological target: Mitogen-activated protein kinase kinase kinase 10 (Homo sapiens) (UniProt Q02779); details: Compound concentration 1000.0 nM
Sequence of Mitogen-activated protein kinase kinase kinase 10 (Homo sapiens) (Q02779 whole entry, looked up): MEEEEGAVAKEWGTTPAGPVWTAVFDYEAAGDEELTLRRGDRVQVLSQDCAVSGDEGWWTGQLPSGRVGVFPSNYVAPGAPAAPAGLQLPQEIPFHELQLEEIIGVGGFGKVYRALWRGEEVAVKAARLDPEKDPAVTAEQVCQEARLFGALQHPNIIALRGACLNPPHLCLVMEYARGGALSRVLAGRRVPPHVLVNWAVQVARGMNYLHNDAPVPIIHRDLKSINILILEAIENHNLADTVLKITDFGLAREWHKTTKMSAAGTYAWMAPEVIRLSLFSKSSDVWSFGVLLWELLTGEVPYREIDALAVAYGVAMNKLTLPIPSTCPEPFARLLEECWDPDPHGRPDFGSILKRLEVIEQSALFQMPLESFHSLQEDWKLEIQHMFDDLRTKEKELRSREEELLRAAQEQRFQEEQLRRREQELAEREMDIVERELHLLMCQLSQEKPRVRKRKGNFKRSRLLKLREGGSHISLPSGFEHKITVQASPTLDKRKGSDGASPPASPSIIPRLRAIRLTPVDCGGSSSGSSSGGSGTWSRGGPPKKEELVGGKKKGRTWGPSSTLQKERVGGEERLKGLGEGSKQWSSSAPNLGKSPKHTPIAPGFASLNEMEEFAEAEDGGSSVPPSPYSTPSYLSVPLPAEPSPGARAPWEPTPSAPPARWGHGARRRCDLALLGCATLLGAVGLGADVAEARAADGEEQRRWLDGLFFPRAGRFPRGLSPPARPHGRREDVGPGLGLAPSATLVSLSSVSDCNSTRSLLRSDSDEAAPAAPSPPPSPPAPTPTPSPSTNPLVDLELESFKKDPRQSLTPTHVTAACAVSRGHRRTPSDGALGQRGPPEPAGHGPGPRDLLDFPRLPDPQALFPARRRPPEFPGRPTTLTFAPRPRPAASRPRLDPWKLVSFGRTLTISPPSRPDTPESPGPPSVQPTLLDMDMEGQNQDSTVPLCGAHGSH

[40] = biological target: Platelet-derived growth factor receptor alpha (Homo sapiens) (UniProt P16234); details: Compound concentration 1000.0 nM
[41] = biological target: Serine/threonine-protein kinase LATS1 (Homo sapiens) (UniProt O95835); details: Compound concentration 1000.0 nM
[42] = biological target: Beta-2 adrenergic receptor (Homo sapiens) (UniProt P07550); details: Compound concentration 10.0 uM
[43] = biological target: MAP/microtubule affinity-regulating kinase 3 (Homo sapiens) (UniProt P27448); details: Compound concentration 1000.0 nM
[44] = biological target: Ephrin type-A receptor 8 (Homo sapiens) (UniProt P29322); details: Compound concentration 1000.0 nM
[45] = biological target: Mitogen-activated protein kinase 6 (Homo sapiens) (UniProt Q16659); details: Compound concentration 1000.0 nM

O=C(Nc1cccnn1)N1CCC(=Cc2cccc(Oc3ccc(C(F)(F)F)cn3)c2)CC1
inactive: residual activity [1] 66% | residual activity [2] 100% | residual activity [3] 74% | residual activity [4] 100% | residual activity [5] 100% | residual activity [6] 93% | residual activity [7] 87% | residual activity [8] 100% | residual activity [9] 100% | residual activity [10] 100% | inhibition [11] 7.86% | residual activity [12] 100% | residual activity [13] 87% | residual activity [14] 100% | residual activity [15] 100% | residual activity [16] 100% | residual activity [17] 100% | residual activity [18] 85% | residual activity [19] 88% | residual activity [20] 90% | residual activity [21] 100% | residual activity [22] 100% | residual activity [23] 100% | residual activity [24] 100% | residual activity [25] 100% | residual activity [26] 100% | residual activity [27] 100% | residual activity [28] 88% | residual activity [29] 100% | residual activity [30] 100% | residual activity [31] 100% | residual activity [32] 100% | residual activity [33] 84% | residual activity [34] 100% | residual activity [35] 100% | residual activity [36] 100% | residual activity [37] 86% | residual activity [38] 97% | residual activity [39] 100% | residual activity [40] 100% | residual activity [41] 100% | inhibition [42] 0.51% | residual activity [43] 89% | residual activity [44] 100% | residual activity [45] 90%

O=C(Nc1cccnn1)N1CC(C/C=C/c2cncc(Oc3ccc(C(F)(F)F)cn3)n2)C1
inactive: residual activity [1] 100% | residual activity [2] 100% | residual activity [3] 100% | residual activity [4] 95% | residual activity [5] 100% | residual activity [6] 100% | residual activity [7] 100% | residual activity [8] 100% | residual activity [9] 95% | residual activity [10] 92% | inhibition [11] -1% | residual activity [12] 53% | residual activity [13] 92% | residual activity [14] 100% | residual activity [15] 100% | residual activity [16] 100% | residual activity [17] 96% | residual activity [18] 91% | residual activity [19] 88% | residual activity [20] 100% | residual activity [21] 100% | residual activity [22] 100% | residual activity [23] 91% | residual activity [24] 100% | residual activity [25] 100% | residual activity [26] 100% | residual activity [27] 67% | residual activity [28] 100% | residual activity [29] 79% | residual activity [30] 100% | residual activity [31] 100% | residual activity [32] 91% | residual activity [33] 100% | residual activity [34] 75% | residual activity [35] 100% | residual activity [36] 82% | residual activity [37] 100% | residual activity [38] 100% | residual activity [39] 100% | residual activity [40] 80% | residual activity [41] 91% | inhibition [42] 16.8% | residual activity [43] 100% | residual activity [44] 100% | residual activity [45] 100%

From ChEMBL document CHEMBL4507297, “Data for DCP probe PF-04457845” (2021)
